Measured values reported in patent publication US20250340570A1, “COMPOSITIONS USEFUL FOR MODULATING SPLICING” (Skyhawk Therapeutics, Inc., priority 2022, published 2025).

Tests used:
[1] = tested on: ATXN3 transcripts containing exon 4; assay: ATXN3 quantitative splicing assay (qPCR, E4E5 transcripts containing exon 4); assay type: cell-based; conditions: Human neuroblastoma SK-N-MC cells, 24 h treatment, qPCR primers/probe E4E5
Procedure: Human neuroblastoma SK-N-MC cells were plated in 384-well plates at 20,000 cells/well. Twenty-four hours after plating, cells were treated with compounds for 24 h at appropriate concentrations ranging from 30 μM to 0.6 nM (0.3% DMSO). Treated cells were lysed in 15 μL of lysis buffer, and cDNA was synthesized using the Fast Advanced Cells-to-Ct kit. Two μL of each cDNA was used in qPCR reactions to confirm the exon 4 skipped transcripts of ATXN3. A second set of primers/probe E4E5 was used to detect the transcripts containing exon 4. The third set of primers/probe E8E9 was used to detect total gene level of ATXN3. The qPCR reactions were prepared in 384-well plates in 10.L volume, using TaqMan™ Fast Advanced Master Mix with primers and probes shown in the table below. Reactions were run in a Quant Studio 6 qPCR instrument with default settings.
The primers and probes are listed below in Table 5.

total ATXN3 protein = assay: ATXN3 total protein assay (Mesoscale Discovery); assay type: cell-based; conditions: Human neuroblastoma SK-N-MC cells, 48 hours incubation, MSD assay
Procedure: Human neuroblastoma SK-N-MC cells were seeded at 10,000 cells/well in 384 well plates one day prior to compound treatment. The concentrations of compounds were tested at appropriate doses ranging from 30 µM to 0.6 nM. After incubation for 48 hours, the cells were lysed with 25.L of lysis buffer containing protease inhibitors, and total ATXN3 protein levels were assessed by Mesoscale Discovery (MSD) assay developed with one pair of and-ATXN3 antibodies. The capture and detect antibodies were raised in mouse and rabbit respectively. Anti-rabbit MSD-ST antibody was used for secondary antibody.
ATXN3 recombinant protein was used for standards. The readouts were captured with 35.L of MSD read buffer and multi-array 384-well high binding plates.

IC50 [1] [nM]	IC50 (total ATXN3 protein) [nM]	Structure (SMILES)
501 to 5000	501 to 5000	N[C@H](Cc1sc2c(NCc3ccco3)snc2c1Cl)CC(F)(F)F [Compound 40, 7-[(S)-2-amino-4,4,4-trifluorobutyl]-8-chloro-4-(furfurylamino)-3,6-dithia-2-azabicyclo[3.3.0]octa-1,4,7-triene]
501 to 5000	501 to 5000	N[C@H](Cc1sc2c(NCc3ccco3)snc2c1Br)CC(F)(F)F [Compound 41, 7-[(S)-2-amino-4,4,4-trifluorobutyl]-8-bromo-4-(furfurylamino)-3,6-dithia-2-azabicyclo[3.3.0]octa-1,4,7-triene]
501 to 5000	501 to 5000	N[C@H](Cc1sc2c(NCc3cccs3)snc2c1Cl)C(F)F [Compound 42, 7-[(R)-2-amino-3,3-difluoropropyl]-8-chloro-4-thenylamino-3,6-dithia-2-azabicyclo[3.3.0]octa-1,4,7-triene]
501 to 5000	101 to 500	N[C@@H](CO)Cc1sc2c(NCc3cccs3)snc2c1Cl [Compound 43, (R)-2-amino-3-(8-chloro-4-thenylamino-3,6-dithia-2-azabicyclo[3.3.0]octa-1,4,7-trien-7-yl)-1-propanol]
5000 to 10000	501 to 5000	COC[C@H](N)Cc1sc2c(NCc3cccs3)snc2c1Cl [Compound 44, 7-[(R)-2-amino-3-methoxypropyl]-8-chloro-4-thenylamino-3,6-dithia-2-azabicyclo[3.3.0]octa-1,4,7-triene]
10000 to 40000	10000 to 40000	Cc1c(CCCN)sc2c(NCc3cccs3)snc12 [Compound 45, 7-(3-aminopropyl)-8-methyl-4-thenylamino-3,6-dithia-2-azabicyclo[3.3.0]octa-1,4,7-triene]
101 to 500	101 to 500	N[C@@H](CO)Cc1sc2c(NCc3ccco3)snc2c1Cl [Compound 46, (R)-2-amino-3-{8-chloro-4-(furfurylamino)-3,6-dithia-2-azabicyclo[3.3.0]octa-1,4,7-trien-7-yl}-1-propanol]
101 to 500	101 to 500	N[C@@H](CF)Cc1sc2c(NCc3cccs3)snc2c1Cl [Compound 47, 7-[(R)-2-amino-3-fluoropropyl]-8-chloro-4-thenylamino-3,6-dithia-2-azabicyclo[3.3.0]octa-1,4,7-triene]
101 to 500	101 to 500	N[C@@H](CF)Cc1sc2c(NCc3ccco3)snc2c1Cl [Compound 48, 7-[(R)-2-amino-3-fluoropropyl]-8-chloro-4-(furfurylamino)-3,6-dithia-2-azabicyclo[3.3.0]octa-1,4,7-triene]
501 to 5000	501 to 5000	N[C@H](Cc1sc2c(NCc3cccs3)snc2c1Br)CC1CC1 [Compound 49, 7-[(S)-2-amino-3-cyclopropylpropyl]-8-bromo-4-thenylamino-3,6-dithia-2-azabicyclo[3.3.0]octa-1,4,7-triene]
501 to 5000	501 to 5000	N[C@H](Cc1sc2c(NCc3cccs3)snc2c1Cl)C1CC(F)(F)C1 [Compound 53, 7-[(R)-2-amino-2-(3,3-difluorocyclobutyl)eth-yl]-8-chloro-4-thenylamino-3,6-dithia-2-azabicyclo[3.3.0]octa-1,4,7-triene]
501 to 5000	501 to 5000	C#C[C@H](N)Cc1sc2c(NCc3cccs3)snc2c1C [Compound 54, 7-[(R)-2-amino-3-butynyl]-8-methyl-4-thenylamino-3,6-dithia-2-azabicyclo[3.3.0]octa-1,4,7-triene]
10000 to 40000	10000 to 40000	CC#C[C@H](N)Cc1sc2c(NCc3cccs3)snc2c1C [Compound 55, 7-[(R)-2-amino-3-pentynyl]-8-methyl-4-thenylamino-3,6-dithia-2-azabicyclo[3.3.0]octa-1,4,7-triene]
101 to 500	501 to 5000	N[C@H](Cc1sc2c(NCc3ccco3)snc2c1Cl)CC1CC1 [Compound 57, 7-[(S)-2-amino-3-cyclopropylpropyl]-8-chloro-4-(furfurylamino)-3,6-dithia-2-azabicyclo[3.3.0]octa-1,4,7-triene]
501 to 5000	501 to 5000	N[C@H](Cc1sc2c(NCc3cccs3)snc2c1Cl)CC1CC1 [Compound 58, 7-[(S)-2-amino-3-cyclopropylpropyl]-8-chloro-4-thenylamino-3,6-dithia-2-azabicyclo[3.3.0]octa-1,4,7-triene]
101 to 500	101 to 500	N[C@@H](CO)Cc1sc2c(NCc3cccs3)snc2c1Br [Compound 59, (R)-2-amino-3-(8-bromo-4-thenylamino-3,6-dithia-2-azabicyclo[3.3.0]octa-1,4,7-trien-7-yl)-1-propanol]
0.01 to 100	0.01 to 100	N[C@@H](CO)Cc1sc2c(NCc3ccco3)snc2c1Br [Compound 60, (R)-2-amino-3-{8-bromo-4-(furfurylamino)-3,6-dithia-2-azabicyclo[3.3.0]octa-1,4,7-trien-7-yl}-1-propanol]
101 to 500	101 to 500	N[C@H](Cc1sc2c(NCc3ccco3)snc2c1Br)CC1CC1 [Compound 61, 7-[(S)-2-amino-3-cyclopropylpropyl]-8-bromo-4-(furfurylamino)-3,6-dithia-2-azabicyclo[3.3.0]octa-1,4,7-triene]
101 to 500	501 to 5000	COC[C@H](N)Cc1sc2c(NCc3cccs3)snc2c1Br [Compound 62, 7-[(R)-2-amino-3-methoxypropyl]-8-bromo-4-thenylamino-3,6-dithia-2-azabicyclo[3.3.0]octa-1,4,7-triene]
101 to 500	101 to 500	COC[C@H](N)Cc1sc2c(NCc3ccco3)snc2c1Br [Compound 63, 7-[(R)-2-amino-3-methoxypropyl]-8-bromo-4-(furfurylamino)-3,6-dithia-2-azabicyclo[3.3.0]octa-1,4,7-triene]
501 to 5000	501 to 5000	COC[C@H](N)Cc1sc2c(NCc3cccs3)snc2c1C [Compound 64, 7-[(R)-2-amino-3-methoxypropyl]-8-methyl-4-thenylamino-3,6-dithia-2-azabicyclo[3.3.0]octa-1,4,7-triene]
501 to 5000	101 to 500	COC[C@H](N)Cc1sc2c(NCc3ccco3)snc2c1Cl [Compound 65, 7-[(R)-2-amino-3-methoxypropyl]-8-chloro-4-(furfurylamino)-3,6-dithia-2-azabicyclo[3.3.0]octa-1,4,7-triene]
10000 to 40000	10000 to 40000	FC(F)(F)c1csc2c(NCc3cccs3)snc12 [Compound 67, (thenyl){8-(trifluoromethyl)-3,6-dithia-2-azabicyclo[3.3.0]octa-1,4,7-trien-4-yl}amine]
10000 to 40000	10000 to 40000	Cc1c(C[C@@H](N)CC(F)F)sc2c(NCc3cccs3)snc12 [Compound 68, 7-[(S)-2-amino-4,4-difluorobutyl]-8-methyl-4-thenylamino-3,6-dithia-2-azabicyclo[3.3.0]octa-1,4,7-triene]
10000 to 40000	10000 to 40000	N[C@H](Cc1sc2c(NCc3cccs3)snc2c1Cl)CC(F)F [Compound 69, 7-[(S)-2-amino-4,4-difluorobutyl]-8-chloro-4-thenylamino-3,6-dithia-2-azabicyclo[3.3.0]octa-1,4,7-triene]
10000 to 40000	10000 to 40000	N[C@H](Cc1sc2c(NCc3cccs3)snc2c1Br)CC(F)F [Compound 70, 7-[(S)-2-amino-4,4-difluorobutyl]-8-bromo-4-thenylamino-3,6-dithia-2-azabicyclo[3.3.0]octa-1,4,7-triene]
10000 to 40000	5000 to 10000	Cc1c(C[C@@H](N)c2ccccc2)sc2c(NCc3cccs3)snc12 [Compound 71, 7-[(R)-2-amino-2-phenylethyl]-8-methyl-4-thenylamino-3,6-dithia-2-azabicyclo[3.3.0]octa-1,4,7-triene]
501 to 5000	101 to 500	Cc1c(C[C@@H](N)[C@H](C)F)sc2c(NCc3cccs3)snc12 [Compound 72, 7-[(2R,3S)-2-amino-3-fluorobutyl]-8-methyl-4-thenylamino-3,6-dithia-2-azabicyclo[3.3.0]octa-1,4,7-triene]
10000 to 40000	5000 to 10000	Cc1c(C[C@@H](N)[C@@H](C)F)sc2c(NCc3cccs3)snc12 [Compound 73, 7-[(2R,3R)-2-amino-3-fluorobutyl]-8-methyl-4-thenylamino-3,6-dithia-2-azabicyclo[3.3.0]octa-1,4,7-triene]
101 to 500	101 to 500	C[C@H](F)[C@H](N)Cc1sc2c(NCc3cccs3)snc2c1Cl [Compound 74, 7-[(2R,3S)-2-amino-3-fluorobutyl]-8-chloro-4-thenylamino-3,6-dithia-2-azabicyclo[3.3.0]octa-1,4,7-triene]

Structure (SMILES)	IC50 [1] [nM]	IC50 (total ATXN3 protein) [nM]
C[C@H](N)Cc1cc2nsc(NCc3cccs3)c2s1 [Compound 66, 5-[(2S)-2-aminopropyl]-N-(thiophen-2-ylmethyl)thieno[3,2-c][1,2]thiazol-3-amine]	10000 to 40000	10000 to 40000
